Structures can show the parent of a compound that is named as a salt.
Assay: Comparative stability study of cyclobenzaprine hydrochloride and aceclofenac together and isolated (opened glass flasks, oven)
Format: physicochemical
Conditions: oven at 50° C. and 90% relative moisture, after 30 days

Row | content of active ingredient(s) by chromatographic analysis | Structure (SMILES)
1 | remained unaltered | O=C(O)COC(=O)Cc1ccccc1Nc1c(Cl)cccc1Cl [aceclofenac, 2-[2-[2-[(2,6-dichlorophenyl)amino]phenyl]acetyl]oxyacetic acid]
2 | remained unaltered | CN(C)CCC=C1c2ccccc2C=Cc2ccccc21 [cyclobenzaprine hydrochloride, 3-(5H-dibenzo[a,d]cyclohepten-5-ylidene)-N,N-dimethyl-1-propanamine]

From patent US8835495B2, “Pharmaceutical composition comprising cyclobenzaprine and aceclofenac in association” (Incrementha P, D & I Pesquisa, Desenvolvimento e Inovacao …, priority 2006, dated 2014)
